Measured values published in patent US8859575B2, “Benzoimidazol-2-yl pyrimidine modulators of the histamine h4 receptor” (Janssen Pharmaceutica NV, priority 2013, dated 2014).
“Also recorded” adds a separate entry of the source.

How the values were obtained:
H4 receptor = H4 receptor (Homo sapiens, UniProt Q9H3N8); conditions: as described in U.S. Pat. No. 7,507,737, 8,343,989 and others; cited from earlier work
[1] = Aqueous solubility at room temperature; type: physicochemical
[2] = Hygroscopicity and physical (solid form) stability; type: physicochemical; conditions: for conversion to another solid form: aqueous solution, atmosphere, dehydration or recrystallization; for physical stability: ambient conditions

| aqueous solubility [1] | hygroscopicity [2] | relative humidity above which it converts to Compound 3 [2] | SMILES | H4 receptor modulator activity (H4 receptor) | conversion to another solid form [2] | physical stability [2] |
| --- | --- | --- | --- | --- | --- | --- |
|  |  |  | Cc1cc(C)c2nc(-c3cnc(NCCCC4CCN(C)CC4)nc3C)[nH]c2c1 [Compound 2, [5-(4,6-Dimethyl-1H-benzoimidazol-2-yl)-4-methyl-pyrimidin-2-yl]-[3-(1-methyl-piperidin-4-yl)-propyl]-amine] | has H4 receptor modulator activity |  |  |
| about 1.1 g/ml | hygroscopic | above 70 % relative humidity | Cc1cc(C)c2nc(-c3cnc(NCCCC4CCN(C)CC4)nc3C)[nH]c2c1.O=C(O)C(O)C(O)C(=O)O [Compound 2.1, 5-(4,6-dimethyl-1H-benzimidazol-2-yl)-4-methyl-N-[3-(1-methyl-4-piperidinyl)-propyl]-2-pyrimidinamine 2,3-dihydroxybutanedioate (1:0.5)] |  | forms the tetrahydrate Compound 3 in aqueous solution |  |
|  | absorbs water readily |  | Cc1cc(C)c2nc(-c3cnc(NCCCC4CCN(C)CC4)nc3C)[nH]c2c1 [Compound 2.2, 5-(4,6-dimethyl-1H-benzimidazol-2-yl)-4-methyl-N-[3-(1-methyl-4-piperidinyl)-propyl]-2-pyrimidinamine 2,3-dihydroxybutanedioate (1:0.5)] |  | converts to Compound 3 when exposed to the atmosphere | physically stable only when stored in a tightly sealed vial at ambient condition |
| about 4.1 mg/ml |  |  | Cc1cc(C)c2nc(-c3cnc(NCCCC4CCN(C)CC4)nc3C)[nH]c2c1.O=C(O)C(O)C(O)C(=O)O [Compound 3, 5-(4,6-dimethyl-1H-benzimidazol-2-yl)-4-methyl-N-[3-(1-methyl-4-piperidinyl)-propyl]-2-pyrimidinamine 2,3-dihydroxybutanedioate tetrahydrate (1:0.5:4)] |  | converts to Compound 2.2 upon dehydration by heating or in low relative humidity; also recorded: no conversion of Compound 3 to other forms was detected | stable under ambient conditions |
